Results reported in patent US20210145846A1 (Kashiv BioSciences, LLC, priority 2017, published 2021).
In brackets after ≈: the same amount, converted by molar mass. Like-named read-outs stand apart in the source and are kept apart here. Blank lines part the entries; values can stand above or below the molecule they belong to.

Key:
[1] = Storage stability of Formulations 1-3 (dl-α-tocopherol assay, total impurities); assay type: physicochemical; details: various storage conditions
Protocol: Three-week and four-week storage stabilities, as per Table 15, of Formulations 1-3 were determined under standard storage conditions of 5° C., storage at room temperature, and storage at 40° C./75% RH. The total impurities were less than 1% at the end of three- or four-week storage at 5° C., RT, and 40° C./75% RH.

[2] = Viscosities of the components in the prototype formulations; assay type: physicochemical; details: neat excipient
Source text: Once injected into the muscle tissue, it forms a depot and the formulation components begin to diffuse into the surrounding tissue and the circulatory system. The rate of diffusion for each component depends on the solubility, permeability, and viscosity of the formulation in the local environment of the depot. Notwithstanding the complexity of the in vivo situation, and without wishing to be held to a particular theory, it is expected that the viscosity of the formulation is a critical factor that affects the diffusion of the formulation components from the site of injection, including from the point of view of ease of injection, diffusion into the muscle tissue, and rate of absorption.

[3] = cited from earlier work
[4] = test system: HR-positive metastatic breast cancer; details: cited from earlier work

- Stability of dl-α-Tocopherol in the formulations [1]: unstable and susceptible to degradation
Molecule: Cc1c(C)c2c(c(C)c1O)CCC(C)(CCCC(C)CCCC(C)CCCC(C)C)O2 (racemic) [dl-α-Tocopherol, dl-α-tocopherol]

- Viscosity (cp) [2]: 5.40 cp
Molecule: OCc1ccccc1 [Benzyl alcohol]

- Viscosity (cp) [2]: 1.04 cp
Molecule: CCO [Ethyl alcohol (Ethanol), Ethanol]

Molecule: C[C@]12CC[C@@H]3c4ccc(O)cc4C[C@@H](CCCCCCCCC[S+]([O-])CCCC(F)(F)C(F)(F)F)[C@H]3[C@@H]1CC[C@@H]2O (stereo partly drawn) [Fulvestrant, 7α-[9-[(4,4,5,5,5-pentafluoropentyl)sulfinyl]nonyl]-estra-1,3,5(10)-triene-3,17β-diol]
- Solubility (mg/ml) at 25° C. ([3]; in Benzyl alcohol, 25° C.): >200 mg/mL
- Solubility (mg/ml) at 25° C. ([3]; in Benzyl benzoate, 25° C.): 6.15 mg/mL (≈ 10.1 mM)
- Solubility (mg/ml) at 25° C. ([3]; in Ethanol, 25° C.): >200 mg/mL
- Solubility (mg/ml) at 25° C. ([3]; in Ethyl oleate, 25° C.): 1.25 mg/mL (≈ 2.06 mM)
- Solubility (mg/ml) at 25° C. ([3]; in Isopropyl myristate, 25° C.): 0.80 mg/mL (≈ 1.32 mM)
- Solubility (mg/ml) at 25° C. ([3]; in Migloyl 810, 25° C.): 3.06 mg/mL (≈ 5.04 mM)
- Solubility (mg/ml) at 25° C. ([3]; in Migloyl 812, 25° C.): 2.72 mg/mL (≈ 4.48 mM)
- Solubility (mg/ml) at 25° C. ([3]; in Polyethylene glycol (PEG 400), 25° C.): 22.5 mg/mL (≈ 37.1 mM)
- Solubility (mg/ml) at 25° C. ([3]; in Propylene glycol, 25° C.): 4.0 mg/mL (≈ 6.59 mM)
- Solubility (mg/ml) at 25° C. ([3]; in SPAN ® 85, 25° C.): 3.79 mg/mL (≈ 6.25 mM)
- Solubility (mg/ml) at 25° C. ([3]; in Sesame oil, 25° C.): 0.58 mg/mL (≈ 0.956 mM)
- Median overall survival ([4]; fulvestrant 250 mg IM): 22.3 months
- Median overall survival ([4]; fulvestrant 500 mg IM): 26.4 months
- Progression-free survival (PFS) ([4]; fulvestrant 500 mg compared with 250 mg): statistically significant increase

- Viscosity (cp) [2]: 42.00 cp
Molecule: CC(O)CO (stereo not shown) [Propylene glycol]

- Viscosity (cp) [2]: 1000-2000 cp
Molecule: sorbitan monolaurate [SPAN ® 20]
